# Test results from the supplement of paper PMC10307832.
# Key:
# Test in all cases: relative viability (nuclei count vs DMSO), 5 days (fraction); higher = more cells survive
# Crenolanib + Luminespib = compound: CC1(COc2ccc3c(c2)ncn3-c2ccc3cccc(N4CCC(N)CC4)c3n2)COC1 [Crenolanib] + CCNC(=O)c1noc(-c2cc(C(C)C)c(O)cc2O)c1-c1ccc(CN2CCOCC2)cc1 [Luminespib] (partner 0.01 µM)
# Method in brief: (§1)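 Medians of duplicate plates are given as relative viability. That measure is the nuclei count in treated wells divided by the count in vehicle wells. Counts were taken on 4× images of lung cancer cell lines in 1536-well plates, 5 days after pin-tool dosing the day after seeding with one drug alone or a fixed anchor-drug dose plus five library-drug doses (not always all listed) in √10 steps.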
# Crenolanib + Phenformin = compound: CC1(COc2ccc3c(c2)ncn3-c2ccc3cccc(N4CCC(N)CC4)c3n2)COC1 [Crenolanib] + N=C(N)NC(=N)NCCc1ccccc1 [Phenformin] (partner 250 µM)
# Method in brief: as §1
# Crenolanib + Decitabine = compound: CC1(COc2ccc3c(c2)ncn3-c2ccc3cccc(N4CCC(N)CC4)c3n2)COC1 [Crenolanib] + Nc1ncn([C@H]2C[C@H](O)[C@@H](CO)O2)c(=O)n1 [Decitabine] (partner 2 µM)
# Method in brief: as §1
# Tivantinib + Linsitinib = compound: O=C1NC(=O)[C@@H](c2cn3c4c(cccc24)CCC3)[C@@H]1c1c[nH]c2ccccc12 [Tivantinib] + C[C@]1(O)C[C@@H](c2nc(-c3ccc4ccc(-c5ccccc5)nc4c3)c3c(N)nccn32)C1 [Linsitinib] (partner 1 µM)
# Method in brief: as §1
Cell Line,relative viability (Crenolanib + Luminespib; first compound 0.01 µM),relative viability (Crenolanib + Luminespib; first compound 0.03162 µM),relative viability (Crenolanib + Luminespib; first compound 0.1 µM),relative viability (Crenolanib + Luminespib; first compound 0.3162 µM),relative viability (Crenolanib + Luminespib; first compound 1 µM),relative viability (Crenolanib + Phenformin; first compound 0.01 µM),relative viability (Crenolanib + Phenformin; first compound 0.03162 µM),relative viability (Crenolanib + Phenformin; first compound 0.1 µM),relative viability (Crenolanib + Phenformin; first compound 0.3162 µM),relative viability (Crenolanib + Phenformin; first compound 1 µM),relative viability (Crenolanib + Decitabine; first compound 0.01 µM),relative viability (Crenolanib + Decitabine; first compound 0.03162 µM),relative viability (Crenolanib + Decitabine; first compound 0.1 µM),relative viability (Crenolanib + Decitabine; first compound 0.3162 µM),relative viability (Crenolanib + Decitabine; first compound 1 µM),relative viability (Tivantinib + Linsitinib; first compound 0.01 µM),relative viability (Tivantinib + Linsitinib; first compound 0.03162 µM),relative viability (Tivantinib + Linsitinib; first compound 0.1 µM),relative viability (Tivantinib + Linsitinib; first compound 0.3162 µM)
SW 1573,0.833,0.283,0.152,0.54,0.16,0.426,0.44,0.331,0.446,0.348,0.333,0.591,0.518,0.648,0.52,0.762,0.853,0.77,0.789
RERF-LC-KJ,1.31,1.28,1.04,1.31,1.18,0.442,0.44,0.423,0.463,0.446,0.672,0.699,0.635,0.697,0.717,0.895,0.945,0.826,0.808
EMC-BAC-2,1.31,1.17,1.17,1.45,1.18,0.629,0.497,0.589,0.51,0.505,1.07,–,0.957,1.11,0.963,0.842,0.808,0.768,0.666
LK-2,0.169,0.18,0.16,0.17,0.199,0.472,0.446,0.411,0.314,0.317,0.304,0.203,0.285,0.337,0.309,0.816,–,0.497,0.355
NCI-H2228,0.137,0.15,0.105,0.193,0.228,0.313,0.487,0.324,0.388,0.317,–,–,–,–,–,0.639,0.538,0.519,0.627
HCC-366,–,–,–,–,–,0.612,0.617,0.591,0.557,0.587,0.33,0.325,0.329,0.374,0.334,0.634,0.543,0.542,0.585
HCC-78,–,–,–,–,–,0.783,0.604,–,0.791,0.555,0.673,0.634,0.734,0.838,0.652,0.553,0.422,0.477,0.286
NCI-H1299,–,–,–,–,–,–,–,–,–,–,–,–,–,–,–,0.941,0.946,0.92,1.04
IA-LM,–,–,–,–,–,–,–,–,–,–,–,–,–,–,–,0.593,–,0.586,0.538
ChaGo-K-1,0.595,0.612,0.655,0.655,0.68,0.533,0.495,0.536,0.42,0.497,0.56,0.489,0.533,0.513,0.556,–,–,–,–
NCI-H1563,0.552,0.499,0.531,0.517,0.478,0.615,0.66,0.699,0.607,0.672,–,–,–,–,–,1.22,1.25,1.07,1.1
NCI-H1703,–,–,–,–,–,–,–,–,–,–,–,–,–,–,–,0.828,0.456,0.783,0.687
NCI-H1648,–,–,–,–,–,–,–,–,–,–,0.521,–,0.477,0.467,0.59,–,–,–,–
NCI-H1650,0.193,0.231,0.203,0.213,0.178,0.527,0.448,0.431,0.383,0.353,0.373,0.377,0.455,0.322,0.343,–,–,–,–
A549,–,–,–,–,–,0.193,0.185,0.165,0.103,0.145,0.208,0.258,0.282,0.221,0.293,0.691,0.545,0.539,0.368
NCI-H522,1.01,0.993,1.15,1.17,1.21,0.706,0.641,0.756,0.656,0.675,0.668,0.63,0.665,0.64,0.607,–,–,–,–
NCI-H2170,0.741,0.568,0.761,1.02,0.672,0.467,0.41,0.387,0.326,0.387,0.474,0.504,0.452,0.506,0.454,–,–,–,–
NCI-H1623,0.582,0.41,0.457,0.633,0.357,0.592,0.595,0.543,0.585,0.553,–,–,–,–,–,–,–,–,–
SW 900,0.167,0.177,0.172,0.218,0.196,0.81,0.697,0.55,0.416,0.585,0.48,–,0.507,0.517,0.407,–,–,–,–
CAL-12T,0.338,0.398,0.272,0.363,0.579,0.533,0.575,0.545,0.598,0.538,–,–,–,–,–,0.785,0.812,0.709,0.397
EBC-1,–,–,–,–,–,–,–,–,–,–,–,–,–,–,–,0.902,0.626,0.842,0.86
